Experimental data from US7816358B2, “Pharmaceutical formulations comprising N,N′-disubstituted piperazine compounds” (Gruenenthal GmbH, priority 2001, dated 2010).

Tested on: gabapentin binding site
Experiment: Gabapentin binding assay: displacement of [3H]-gabapentin from its binding site
Conditions: compound 10 μM in the test batch; [3H]-gabapentin 10 nM; homogenate 0.6 mg/ml protein; 40 minutes at room temperature
Method: In the binding assay, the binding and affinities of the compounds according to the invention to the binding site—which is also hitherto still unknown in science—of gabapentin is investigated. The affinity of the compounds was measured via the displacement of gabapentin from its binding site.
The procedure for the measurement was as follows: Homogenate aliquots were thawed and diluted 20-fold with buffer 1, resuspended and then centrifuged at 110,000×g for 20 minutes. The pellet was resuspended with buffer 2 (10 mM HEPES, 0.05% NaN3, 1 tablet of Complete (Roche Diagnostics) per 100 ml, 0.004% Structol, pH 7.4) and adjusted to a protein concentration of 0.6 mg/ml. 225 μl of homogenate, 20 μl of [^3H]-gabapentin (76 Ci/mmol) in buffer 2, corresponding to a concentration of 10 nM in the test batch, and 5 μl of a compound according to the invention (dissolved in 25% DMSO in water) with a concentration of 10 μM in the test batch were incubated on a shaking machine for 40 minutes at room temperature in 96-well microtiter plates (polypropylene, Costar) and the incubated mixture was then filtered with suction on 96-well Unifilter plates with GF/B filters (Whatman) using a harvester (Robotic Harvester 9600, Brandel). The filter plates were preswollen for 40 minutes in buffer 3 (50 mM Tris, 0.5% PEI, pH 7.4) before the filtering step. The filter plates were washed three times with wash buffer (0.1 M NaCl with 0.05 NaN3) after the filtering step in order to remove non-bound radioligand, and then dried in a drying cabinet at 55° C. After a cooling phase of 15 minutes, 35 μl of scintillator (Ultima Gold MV, Packard) were added per well and the radioactivity on the filters was then determined in a β-counter (Trilux Microbeta, Wallac).

Structure (SMILES)	Gabapentin [%] inhibition
CN1CCN(CC2CCCCCC2(O)Cc2cccc(F)c2)CC1 (stereo not drawn) [1-(3-Fluoro-benzyl)-2-(4-methyl-piperazin-1-ylmethyl)-cycloheptanol]	44%
CN1CCN(CC2CCCCCCC2(O)Cc2ccc(F)cc2)CC1 (stereo not drawn) [1-(4-Fluoro-benzyl)-2-(4-methyl-piperazin-1-ylmethyl)-cyclooctanol]	39%
CN1CCN(CC2CCCCCCC2(O)Cc2c(F)cccc2Cl)CC1 (stereo not drawn) [1-(2-Chloro-6-fluoro-benzyl)-2-(4-methyl-piperazin-1-ylmethyl)-cyclooctanol]	60%
CN1CCN(CC2CCCCCC2(O)Cc2ccc(Cl)cc2Cl)CC1 (stereo not drawn) [1-(2,4-Dichloro-benzyl)-2-(4-methyl-piperazin-1-ylmethyl)-cycloheptanol]	48%
CN1CCN(CC2CCCCCCC2(O)Cc2cccc(F)c2)CC1 (stereo not drawn) [1-(3-Fluoro-benzyl)-2-(4-methyl-piperazin-1-ylmethyl)-cyclooctanol]	42%
CN1CCN(CC2CCCCCC2(O)Cc2c(F)cccc2Cl)CC1 (stereo not drawn) [1-(2-Chloro-6-fluoro-benzyl)-2-(4-methyl-piperzazin-1-ylmethyl)-cycloheptanol]	82%
C=CC1(O)CCCCCCCCCCC1CN1CCN(C)CC1 (stereo not drawn) [2-(4-Methyl-piperazin-1-ylmethyl)-1-vinyl-cyclododecanol]	49%
CN1CCN(CC2CCCCCCC2(O)Cc2ccc(Cl)cc2Cl)CC1 (stereo not drawn) [1-(2,4-Dichloro-benzyl)-2-(4-methyl-piperazin-1-ylmethyl)-cyclooctanol]	48%
CN1CCN(CC2CCCCCCC2(O)Cc2ccccc2Cl)CC1 (stereo not drawn) [1-(2-Chloro-benzyl)-2-(4-methyl-piperazin-1-ylmethyl)-cyclooctanol]	61%
CN1CCN(CC2CCCCCCCCCCC2(O)Cc2cccc(F)c2)CC1 (stereo not drawn) [1-(3-Fluoro-benzyl)-2-(4-methyl-piperazin-1-ylmeethyl)-cyclododecanol]	45%
CN1CCN(CC2CCCCCCCCCCC2(O)Cc2ccccc2)CC1 (stereo not drawn) [1-Benzyl-2-(4-methyl-piperazin-1-ylmethyl)-cyclododecanol]	56%
CN1CCN(CC2CCCCCC2(O)Cc2ccccc2Cl)CC1 (stereo not drawn) [1-(2-Chloro-benzyl)-2-(4-methyl-piperazin-1-ylmethyl)-cycloheptanol]	74%
